Among the data in ChEMBL document CHEMBL3297680, “Pharmacophore based virtual screening, molecular docking and biological evaluation to identify novel PDE5 inhibitors with vasodilatory activity” (Bioorg Med Chem Lett, 2014) are IC50 and Activity values, retold here.

The structures appear in SMILES notation.

The first test addresses cGMP-specific 3',5'-cyclic phosphodiesterase (Homo sapiens, UniProt O76074). Nature of the test: Inhibition of PDE5 (unknown origin).
As to `CN(C)Cc1nc2c(n1Cc1ccccc1)C(=O)N(C)C1=N[C@@H]3CCC[C@@H]3N12`, the midpoint of inhibition, the IC50, lay at 5.6 µM.
As to `CN1C(=O)c2c(nc(CC3CC3)n2Cc2ccccc2)N2C1=N[C@@H]1CCC[C@@H]12`, the IC50 (as a rule, the concentration at which inhibition is half-maximal) is 0.42 µM.
Still for that read-out and setting: to `CN1C(=O)c2c(nc(Cc3ccccc3)n2Cc2cccc(O)c2O)N2C1=N[C@@H]1CCC[C@@H]12` belongs 0.2 µM; to `CN1C(=O)c2c(nc(CC3CCCC3)n2Cc2ccccc2)N2C1=N[C@@H]1CCC[C@@H]12`, 0.275 µM.
Consider `CN1C(=O)c2c(nc(Cc3ccccc3)n2Cc2ccccc2)N2C1=N[C@@H]1CCC[C@@H]12`, for which the IC50 amounted to 0.18 µM.
As to `CN1C(=O)c2[nH]c(C#Cc3ccccc3)nc2N2C1=N[C@@H]1CCC[C@@H]12`, the IC50 was found to be 6 µM.
Still for that read-out and setting: to `CN1C(=O)c2c(nc(Cc3ncc[nH]3)n2Cc2ccccc2)N2C1=N[C@@H]1CCC[C@@H]12` belongs 1.5 µM; to `CN1C(=O)c2[nH]c(C(F)(F)F)nc2N2C1=N[C@@H]1CCC[C@@H]12`, 6.2 µM; to `CN1C(=O)c2c(nc(Cc3ccccc3)n2Cc2ncc[nH]2)N2C1=N[C@@H]1CCC[C@@H]12`, 4 µM.
In turn, `CN1C(=O)c2c(nc(C#Cc3ccccc3)n2Cc2ccccc2)N2C1=N[C@@H]1CCC[C@@H]12` returned an IC50 of 0.004 µM.
The compound `Cc1nc2c([nH]1)C(=O)N(C)C1=N[C@@H]3CCC[C@@H]3N12` gave an IC50 of 2.4 µM.
Still for that read-out and setting: to `CN1C(=O)c2[nH]c(Cc3ccc(-c4ccccc4)cc3)nc2N2CC3(CCCC3)N=C12` belongs 0.043 µM.
As for `CN1C(=O)c2c(nc(Cc3ccccc3)n2CCO)N2C1=N[C@@H]1CCC[C@@H]12`, the IC50 turned out to be 10 µM.
`CN1C(=O)c2[nH]c(Cc3ccccc3)nc2N2CC3(CCCC3)N=C12`: the midpoint of inhibition, the IC50, lay at 0.019 µM.
For the compound `CCN1C(=O)c2[nH]c(C)nc2N2C1=N[C@@H]1CCC[C@@H]12`, 0.1 µM corresponded to half-maximal inhibition (IC50).
Turning to `CN1C(=O)c2c(nc(CN3CCCC3)n2Cc2ccccc2)N2C1=N[C@@H]1CCC[C@@H]12`, half-maximal inhibition (IC50) required 1.2 µM.
Consider `Cc1nc2c(n1Cc1ccccc1)C(=O)N(C)C1=N[C@@H]3CCC[C@@H]3N12`, for which 0.225 µM corresponded to half-maximal inhibition (IC50).
Compound `CCCc1nc2c(n1Cc1ccccc1)C(=O)N(C)C1=N[C@@H]3CCC[C@@H]3N12` had an IC50 of 0.51 µM.
Consider `CC(C)CCc1nc2c([nH]1)C(=O)N(C)C1=N[C@@H]3CCC[C@@H]3N12`, for which the IC50 came out at 0.05 µM.
As to `CCCc1nc2c([nH]1)N1C(=N[C@@H]3CCC[C@@H]31)N(C)C2=O`, 0.8 µM corresponded to half-maximal inhibition (IC50).
Same read-out and setting: to `CCCCCCc1nc2c(n1Cc1ccccc1)C(=O)N(C)C1=N[C@@H]3CCC[C@@H]3N12` belongs 0.8 µM; to `CN1C(=O)c2c(nc(Cc3ccccc3)n2Cc2ccccc2)N2CC3(CCCC3)N=C12`, 0.12 µM; to `CN1C(=O)c2[nH]c(CC3CCCC3)nc2N2C1=N[C@@H]1CCC[C@@H]12`, 0.034 µM.
As to `CN1C(=O)c2c(nc(Cc3ccccc3)n2C)N2CC3(CCCC3)N=C12`, inhibition was half-maximal at 4.5 µM (IC50).
The same measure, in the same setting: to `CN1C(=O)c2c(nc(CC3CCCC3)n2Cc2ccccc2)N2CC3(CCCC3)N=C12` belongs 0.12 µM.
For the compound `CN1C(=O)c2c(nc(-c3ccccc3)n2Cc2ccccc2)N2CC3(CCCC3)N=C12`, the IC50 came out at 0.011 µM.
The compound `CN1C(=O)c2c(nc(Cc3ccc(-c4ccccc4)cc3)n2Cc2ccccc2)N2CC3(CCCC3)N=C12` gave an IC50 of 0.2 µM.
Same read-out and setting: to `CCCCCCc1nc2c([nH]1)C(=O)N(C)C1=N[C@@H]3CCC[C@@H]3N12` belongs 0.01 µM; to `CN1C(=O)c2[nH]c(CC3CCCCC3)nc2N2C1=N[C@@H]1CCC[C@@H]12`, 0.019 µM.
`Cc1nc2c(n1Cc1ccccc1)N1CC3(CCCC3)N=C1N(C)C2=O`: 2.9 µM corresponded to half-maximal inhibition (IC50).
For `CN1C(=O)c2[nH]c(Cc3ncc[nH]3)nc2N2C1=N[C@@H]1CCC[C@@H]12`, it took 26 µM to reach half-maximal inhibition (IC50).
In turn, `CN1C(=O)c2c(nc(Cc3ccc(-c4ccccc4)cc3)n2Cc2ccccc2)N2C1=N[C@@H]1CCC[C@@H]12` registered an IC50 of 0.305 µM.
On the same count and under the same terms, to `CN1C(=O)c2c(nc(C(F)(F)F)n2Cc2ccccc2)N2C1=N[C@@H]1CCC[C@@H]12` belongs 0.4 µM; to `CN1C(=O)c2[nH]c(-c3ccccc3)nc2N2CC3(CCCC3)N=C12`, 3.3 µM.
`CN1C(=O)c2[nH]c(CC3CC3)nc2N2C1=N[C@@H]1CCC[C@@H]12` registered an IC50 of 0.61 µM.
Take `CN1C(=O)c2c(nc(CC3CCCCC3)n2Cc2ccccc2)N2C1=N[C@@H]1CCC[C@@H]12`: the midpoint of inhibition, the IC50, lay at 0.59 µM.
For `CN1C(=O)c2[nH]c(CC3CCCC3)nc2N2CC3(CCCC3)N=C12`, half-maximal inhibition (IC50) required 0.026 µM.
Take `COCc1nc2c(n1Cc1ccccc1)C(=O)N(C)C1=N[C@@H]3CCC[C@@H]3N12`: the IC50 was 1 µM.
Same read-out and setting: to `CN1C(=O)c2c(nc(Cc3ccccc3)n2Cc2cccnc2)N2C1=N[C@@H]1CCC[C@@H]12` belongs 4.3 µM; to `Cc1nc2c([nH]1)C(=O)N(C(C)C)C1=N[C@@H]3CCC[C@@H]3N12`, 0.24 µM; to `CN1C(=O)c2[nH]c(CN3CCCC3)nc2N2C1=N[C@@H]1CCC[C@@H]12`, 16 µM.
Consider `CN1C(=O)c2c(nc(Cc3ccccc3)n2CC2CCCCC2)N2C1=N[C@@H]1CCC[C@@H]12`, for which the IC50 was determined as 0.11 µM.
The compound `CN1C(=O)c2[nH]c(Cc3ccc(-c4ccccc4)cc3)nc2N2C1=N[C@@H]1CCC[C@@H]12` displayed an IC50 of 0.066 µM.
The same measure, in the same setting: to `CC(C)CCc1nc2c(n1Cc1ccccc1)C(=O)N(C)C1=N[C@@H]3CCC[C@@H]3N12` belongs 0.56 µM; to `COCc1nc2c([nH]1)N1C(=N[C@@H]3CCC[C@@H]31)N(C)C2=O`, 13 µM.

The next test concerns Aorta. The test is described as follows: Vasodilatory activity in phenylephrine-induced pre-contracted Wistar rat aortic ring assessed as relaxation at 10 '-6 M. The test is classed as functional. The arrangement: scale not given: the % may be the effect or the level left.
`CCCCC(=O)c1cc(OC)cc(OC)c1`: the Activity stood at 50%.

For another test, the system named is Aorta. Nature of the test: Vasodilatory activity in phenylephrine-induced pre-contracted Wistar rat aortic ring assessed as relaxation at 10 '-5 M. The class given is functional. Details: scale not given: the % may be the effect or the level left.
`CCCc1nn(C)c2c(=O)[nH]c(-c3cc(S(=O)(=O)N4CCN(C)CC4)ccc3OCC)nc12`: the Activity stood at 50%.
Consider `CCCCC(=O)c1cc(OC)cc(OC)c1`, for which the Activity stood at 50%.
In the case of `CCOC(=O)c1cnc2nc(N)ccc2c1O`, the Activity is on record as 50%.

Another test relates to Aorta. The test is described as follows: Vasodilatory activity in phenylephrine-induced pre-contracted Wistar rat aortic ring assessed as relaxation at 10 '-4 M. The class given is functional. The arrangement: scale not given: the % may be the effect or the level left.
Regarding `CC(CC/N=C/c1ccccc1O)/N=C/c1ccccc1O` (centres undefined), the Activity is 50%.
Regarding `CCCCC(=O)c1cc(OC)cc(OC)c1`, the Activity turned out to be 50%.

The next test concerns Aorta. Nature of the test: Vasodilatory activity in phenylephrine-induced pre-contracted Wistar rat aortic ring assessed as relaxation at 10 '-2 M. The arrangement: scale not given: the % may be the effect or the level left. The class given is functional.
Consider `CCCc1nn(C)c2c(=O)[nH]c(-c3cc(S(=O)(=O)N4CCN(C)CC4)ccc3OCC)nc12`, for which the Activity worked out at 50%.
The same measure, in the same setting: to `CCCCC(=O)c1cc(OC)cc(OC)c1` belongs 50%; to `CCOC(=O)c1cnc2nc(N)ccc2c1O`, 50%.
